{"source": "patent US20060263449A1", "about": "(Advanced Gene Technology, Corp., priority 2005, published 2006)", "key": {"[1]": {"tested_on": "67 molecular targets including G-protein coupled receptors, ion channel-coupled receptors, transporters, ion channels and enzymes", "assay": "In vitro safety evaluation, whole panel", "conditions": "andrographolide at a concentration of 25 μM in the herbal composition", "protocol": "To confirm possible adverse effects, extensive in vitro studies covering a broad range of physical function-related 67 molecular targets including G-protein coupled receptors, ion channel-coupled receptors, transporters, ion channels and enzymes, were conducted. […] Interactions found in the primary assay can be indicative of in vivo side effects or safety."}, "[2]": {"tested_on": "phytohemagglutinin (PHA)-stimulated whole blood cell", "conditions": "cultivated; cited from earlier work"}}, "data": [{"smiles": "C=C1CC[C@@H]2[C@](C)(CO)[C@H](O)CC[C@@]2(C)[C@@H]1C/C=C1/C(=O)OC[C@H]1O", "note": "[andrographolide]", "values": [{"measurement": "side-effect in the in vitro safety evaluation", "setting": "[1]", "value": "no significant side-effect"}, {"measurement": "formation of TNFα and β2MG", "setting": "[2]", "value": "increase"}]}]}
